{"source": "the OligoGym collection", "note": "Oligonucleotides are written 5' to 3', each unit as a sugar letter and its base; * is a phosphorothioate linkage, no mark a phosphodiester; rarer units and linkages stand in square brackets, end groups in braces. Plain capitals give the bases only. d = 2'-deoxy (DNA); r = 2'-OH (RNA); note: test concentration or dose not given here", "data": [{"molecular_target": "NOG", "experiment": "reporter assay of Huesken 2005", "conditions": "siRNA", "units": {"normalised inhibition (eCFP-eYFP dual reporter)": "%"}, "values": [{"substance": "sense rGrArUrGrUrGrGrCrUrGrUrGrGrUrCrGrCrArGdTdT / antisense rCrUrGrCrGrArCrCrArCrArGrCrCrArCrArUrCdTdG", "normalised inhibition (eCFP-eYFP dual reporter)": 81.7}, {"substance": "sense rGrCrArGrCrCrGrCrUrUrUrUrGrGrCrCrGrCrGdTdT / antisense rCrGrCrGrGrCrCrArArArArGrCrGrGrCrUrGrCdCdC", "normalised inhibition (eCFP-eYFP dual reporter)": 46.4}, {"substance": "sense rGrCrArGrCrUrGrCrUrUrCrArGrUrArArGrCrGdTdT / antisense rCrGrCrUrUrArCrUrGrArArGrCrArGrCrUrGrCdCdC", "normalised inhibition (eCFP-eYFP dual reporter)": 63.1}, {"substance": "sense rGrCrCrCrGrGrCrArCrCrCrArGrCrGrArCrArAdTdT / antisense rUrUrGrUrCrGrCrUrGrGrGrUrGrCrCrGrGrGrCdGdG", "normalised inhibition (eCFP-eYFP dual reporter)": 88.4}, {"substance": "sense rGrCrCrGrGrCrGrGrCrCrArGrCrArCrUrArUrCdTdT / antisense rGrArUrArGrUrGrCrUrGrGrCrCrGrCrCrGrGrCdCdG", "normalised inhibition (eCFP-eYFP dual reporter)": 82.2}, {"substance": "sense rGrCrCrGrUrCrCrArArGrUrCrCrGrUrGrCrArCdTdT / antisense rGrUrGrCrArCrGrGrArCrUrUrGrGrArCrGrGrCdTdT", "normalised inhibition (eCFP-eYFP dual reporter)": 66.1}, {"substance": "sense rGrCrCrUrArArGrCrArArGrArArGrCrUrGrCrGdTdT / antisense rCrGrCrArGrCrUrUrCrUrUrGrCrUrUrArGrGrCdGdC", "normalised inhibition (eCFP-eYFP dual reporter)": 85.7}, {"substance": "sense rGrCrGrArGrArUrCrArArArGrGrGrCrUrArGrAdTdT / antisense rUrCrUrArGrCrCrCrUrUrUrGrArUrCrUrCrGrCdTdC", "normalised inhibition (eCFP-eYFP dual reporter)": 96.7}, {"substance": "sense rGrCrGrGrCrArGrCrGrGrCrCrGrUrCrGrGrGrGdTdT / antisense rCrCrCrCrGrArCrGrGrCrCrGrCrUrGrCrCrGrCdAdG", "normalised inhibition (eCFP-eYFP dual reporter)": 70.5}, {"substance": "sense rGrCrUrGrCrGrCrUrCrGrCrUrGrCrUrCrGrGrGdTdT / antisense rCrCrCrGrArGrCrArGrCrGrArGrCrGrCrArGrCdAdG", "normalised inhibition (eCFP-eYFP dual reporter)": 67.1}, {"substance": "sense rGrCrUrGrCrGrGrUrGrGrCrGrCrUrGrUrCrArGdTdT / antisense rCrUrGrArCrArGrCrGrCrCrArCrCrGrCrArGrCdAdC", "normalised inhibition (eCFP-eYFP dual reporter)": 80.5}, {"substance": "sense rGrCrUrGrCrUrGrCrGrCrUrCrGrCrUrGrCrUrCdTdT / antisense rGrArGrCrArGrCrGrArGrCrGrCrArGrCrArGrCdGdT", "normalised inhibition (eCFP-eYFP dual reporter)": 78.8}, {"substance": "sense rGrCrUrUrCrArGrUrArArGrCrGrCrUrCrGrUrGdTdT / antisense rCrArCrGrArGrCrGrCrUrUrArCrUrGrArArGrCdAdG", "normalised inhibition (eCFP-eYFP dual reporter)": 84.7}, {"substance": "sense rGrGrArArCrGrArCrCrUrGrGrGrCrArGrCrCrGdTdT / antisense rCrGrGrCrUrGrCrCrCrArGrGrUrCrGrUrUrCrCdAdC", "normalised inhibition (eCFP-eYFP dual reporter)": 51.5}, {"substance": "sense rGrGrCrArArGrArArGrCrArGrCrGrCrCrUrArAdTdT / antisense rUrUrArGrGrCrGrCrUrGrCrUrUrCrUrUrGrCrCdCdT", "normalised inhibition (eCFP-eYFP dual reporter)": 91.3}, {"substance": "sense rGrGrCrArUrGrGrUrGrUrGrCrArArGrCrCrGrUdTdT / antisense rArCrGrGrCrUrUrGrCrArCrArCrCrArUrGrCrCdCdT", "normalised inhibition (eCFP-eYFP dual reporter)": 79.1}, {"substance": "sense rGrGrCrGrGrCrCrArGrCrArCrUrArUrCrUrCrCdTdT / antisense rGrGrArGrArUrArGrUrGrCrUrGrGrCrCrGrCrCdGdG", "normalised inhibition (eCFP-eYFP dual reporter)": 87.4}, {"substance": "sense rGrGrCrUrUrCrArUrGrGrCrCrArCrCrUrCrGrCdTdT / antisense rGrCrGrArGrGrUrGrGrCrCrArUrGrArArGrCrCdTdG", "normalised inhibition (eCFP-eYFP dual reporter)": 64.6}, {"substance": "sense rGrGrGrCrArArGrArArGrCrArGrCrGrCrCrUrAdTdT / antisense rUrArGrGrCrGrCrUrGrCrUrUrCrUrUrGrCrCrCdTdG", "normalised inhibition (eCFP-eYFP dual reporter)": 93.3}, {"substance": "sense rGrUrCrCrArArGrUrCrCrGrUrGrCrArCrCrUrCdTdT / antisense rGrArGrGrUrGrCrArCrGrGrArCrUrUrGrGrArCdGdG", "normalised inhibition (eCFP-eYFP dual reporter)": 55.7}, {"substance": "sense rGrUrGrCrArArGrCrCrGrUrCrCrArArGrUrCrCdTdT / antisense rGrGrArCrUrUrGrGrArCrGrGrCrUrUrGrCrArCdAdC", "normalised inhibition (eCFP-eYFP dual reporter)": 75.4}, {"substance": "sense rGrUrGrGrCrUrGrUrGrGrUrCrGrCrArGrArCrAdTdT / antisense rUrGrUrCrUrGrCrGrArCrCrArCrArGrCrCrArCdAdT", "normalised inhibition (eCFP-eYFP dual reporter)": 83.3}, {"substance": "sense rUrArCrGrCrGrUrGrGrArArCrGrArCrCrUrGrGdTdT / antisense rCrCrArGrGrUrCrGrUrUrCrCrArCrGrCrGrUrAdCdA", "normalised inhibition (eCFP-eYFP dual reporter)": 51.8}, {"substance": "sense rUrCrArUrCrGrArArCrArCrCrCrArGrArCrCrCdTdT / antisense rGrGrGrUrCrUrGrGrGrUrGrUrUrCrGrArUrGrAdGdG", "normalised inhibition (eCFP-eYFP dual reporter)": 67.8}, {"substance": "sense rUrCrCrGrCrCrCrGrGrCrArCrCrCrArGrCrGrAdTdT / antisense rUrCrGrCrUrGrGrGrUrGrCrCrGrGrGrCrGrGrAdTdG", "normalised inhibition (eCFP-eYFP dual reporter)": 72}, {"substance": "sense rUrCrGrCrArGrArCrArUrUrCrUrGrCrCrCrCrGdTdT / antisense rCrGrGrGrGrCrArGrArArUrGrUrCrUrGrCrGrAdCdC", "normalised inhibition (eCFP-eYFP dual reporter)": 47.6}, {"substance": "sense rUrCrUrGrCrCrCrCrGrUrGrCrUrGrUrArCrGrCdTdT / antisense rGrCrGrUrArCrArGrCrArCrGrGrGrGrCrArGrAdAdT", "normalised inhibition (eCFP-eYFP dual reporter)": 61}, {"substance": "sense rUrGrCrUrGrUrArCrGrCrGrUrGrGrArArCrGrAdTdT / antisense rUrCrGrUrUrCrCrArCrGrCrGrUrArCrArGrCrAdCdG", "normalised inhibition (eCFP-eYFP dual reporter)": 85.2}, {"substance": "sense rUrGrGrUrCrGrCrArGrArCrArUrUrCrUrGrCrCdTdT / antisense rGrGrCrArGrArArUrGrUrCrUrGrCrGrArCrCrAdCdA", "normalised inhibition (eCFP-eYFP dual reporter)": 40.5}, {"substance": "sense rUrGrGrUrGrGrArCrCrUrCrArUrCrGrArArCrAdTdT / antisense rUrGrUrUrCrGrArUrGrArGrGrUrCrCrArCrCrAdGdG", "normalised inhibition (eCFP-eYFP dual reporter)": 96.4}, {"substance": "sense rUrGrUrGrGrUrCrGrCrArGrArCrArUrUrCrUrGdTdT / antisense rCrArGrArArUrGrUrCrUrGrCrGrArCrCrArCrAdGdC", "normalised inhibition (eCFP-eYFP dual reporter)": 57.5}, {"substance": "sense rUrUrGrGrCrCrCrArGrGrGrCrArArGrArArGrCdTdT / antisense rGrCrUrUrCrUrUrGrCrCrCrUrGrGrGrCrCrArAdGdC", "normalised inhibition (eCFP-eYFP dual reporter)": 41.1}]}, {"molecular_target": "UFC1", "experiment": "reporter assay of Huesken 2005", "conditions": "siRNA", "units": {"normalised inhibition (eCFP-eYFP dual reporter)": "%"}, "values": [{"substance": "sense rArArArUrCrCrCrUrGrArUrCrUrGrArUrUrCrAdTdT / antisense rUrGrArArUrCrArGrArUrCrArGrGrGrArUrUrUdCdC", "normalised inhibition (eCFP-eYFP dual reporter)": 81}, {"substance": "sense rArArCrArArGrArArUrGrCrUrGrArCrArArCrGdTdT / antisense rCrGrUrUrGrUrCrArGrCrArUrUrCrUrUrGrUrUdGdT", "normalised inhibition (eCFP-eYFP dual reporter)": 43.3}, {"substance": "sense rArArGrArCrArGrCrArArArGrArUrGrUrArCrAdTdT / antisense rUrGrUrArCrArUrCrUrUrUrGrCrUrGrUrCrUrUdTdC", "normalised inhibition (eCFP-eYFP dual reporter)": 113}, {"substance": "sense rArArGrArUrGrUrArCrArGrGrGrGrUrGrGrCrAdTdT / antisense rUrGrCrCrArCrCrCrCrUrGrUrArCrArUrCrUrUdTdG", "normalised inhibition (eCFP-eYFP dual reporter)": 62.3}, {"substance": "sense rArArGrGrArArCrUrCrGrGrUrGrGrUrUrUrGrGdTdT / antisense rCrCrArArArCrCrArCrCrGrArGrUrUrCrCrUrUdCdC", "normalised inhibition (eCFP-eYFP dual reporter)": 32.2}, {"substance": "sense rArCrArArCrArArGrArArUrGrCrUrGrArCrArAdTdT / antisense rUrUrGrUrCrArGrCrArUrUrCrUrUrGrUrUrGrUdTdC", "normalised inhibition (eCFP-eYFP dual reporter)": 86.4}, {"substance": "sense rArCrCrUrCrCrUrGrArArArUrArUrGrArGrUrUdTdT / antisense rArArCrUrCrArUrArUrUrUrCrArGrGrArGrGrUdCdA", "normalised inhibition (eCFP-eYFP dual reporter)": 43.5}, {"substance": "sense rArCrCrUrUrUrGrUrGrGrGrCrCrArGrGrArArUdTdT / antisense rArUrUrCrCrUrGrGrCrCrCrArCrArArArGrGrUdTdT", "normalised inhibition (eCFP-eYFP dual reporter)": 56.9}, {"substance": "sense rArCrGrGrArUrCrArUrUrUrCrArArArCrCrUrUdTdT / antisense rArArGrGrUrUrUrGrArArArUrGrArUrCrCrGrUdCdA", "normalised inhibition (eCFP-eYFP dual reporter)": 106}, {"substance": "sense rArCrUrArGrCrUrCrArUrCrUrCrArUrGrGrCrUdTdT / antisense rArGrCrCrArUrGrArGrArUrGrArGrCrUrArGrUdCdC", "normalised inhibition (eCFP-eYFP dual reporter)": 53.8}, {"substance": "sense rArCrUrGrArArGrGrArGrGrArArUrArUrCrArGdTdT / antisense rCrUrGrArUrArUrUrCrCrUrCrCrUrUrCrArGrUdCdG", "normalised inhibition (eCFP-eYFP dual reporter)": 75.2}, {"substance": "sense rArGrCrGrArCrUrGrArArGrGrArGrGrArArUrAdTdT / antisense rUrArUrUrCrCrUrCrCrUrUrCrArGrUrCrGrCrUdGdC", "normalised inhibition (eCFP-eYFP dual reporter)": 93.1}, {"substance": "sense rArGrGrArArGrGrArArCrUrCrGrGrUrGrGrUrUdTdT / antisense rArArCrCrArCrCrGrArGrUrUrCrCrUrUrCrCrUdTdG", "normalised inhibition (eCFP-eYFP dual reporter)": 61.8}, {"substance": "sense rArGrGrGrCrGrUrCrArUrCrCrArArCrArCrArAdTdT / antisense rUrUrGrUrGrUrUrGrGrArUrGrArCrGrCrCrCrUdTdC", "normalised inhibition (eCFP-eYFP dual reporter)": 107}, {"substance": "sense rArGrUrCrCrArArCrArArGrGrArArGrGrArArCdTdT / antisense rGrUrUrCrCrUrUrCrCrUrUrGrUrUrGrGrArCrUdCdC", "normalised inhibition (eCFP-eYFP dual reporter)": 83.5}, {"substance": "sense rArGrUrCrCrCrUrUrArUrCrCrGrGrUrArUrGrUdTdT / antisense rArCrArUrArCrCrGrGrArUrArArGrGrGrArCrUdGdA", "normalised inhibition (eCFP-eYFP dual reporter)": 74.6}, {"substance": "sense rArGrUrUrGrUrGrGrGrUrGrCrArGrCrGrArCrUdTdT / antisense rArGrUrCrGrCrUrGrCrArCrCrCrArCrArArCrUdCdA", "normalised inhibition (eCFP-eYFP dual reporter)": 80.4}, {"substance": "sense rArGrUrUrUrGrArCrArUrCrGrArGrUrUrUrGrAdTdT / antisense rUrCrArArArCrUrCrGrArUrGrUrCrArArArCrUdCdA", "normalised inhibition (eCFP-eYFP dual reporter)": 122}, {"substance": "sense rArUrArUrCrCrUrArCrUrArCrUrGrCrCrCrCrAdTdT / antisense rUrGrGrGrGrCrArGrUrArGrUrArGrGrArUrArUdGdT", "normalised inhibition (eCFP-eYFP dual reporter)": 78.2}, {"substance": "sense rArUrCrArCrArUrArUrCrCrUrArCrUrArCrUrGdTdT / antisense rCrArGrUrArGrUrArGrGrArUrArUrGrUrGrArUdAdG", "normalised inhibition (eCFP-eYFP dual reporter)": 69.2}]}]}
